Laboratory results reported in patent publication US20080124310A1, “Bead based receptor biology” (priority 2006, published 2008).

How the values were obtained:
Format in all cases: cell-based, murine
Thrombospondin = assay: Surface expression of thrombospondin on macrophages
Excerpt: Thrombospondin is a protein that is known to bind apolipoprotein and lipid receptors expressed on the surface of cells including the scavenger receptor class B multi ligand receptor CD36 associated with atherosclerosis and Alzheimer's.

RAW 264.7 macrophages [1] = assay: Uptake of free fluorescent DI-LDL or OX-LDL, red fluorescence confocal microscopy; details: 594 nm
Method: RAW 264.7 macrophages were cultured in alpha MEM with 5% fetal calf serum as described. The effects of lovastatin on IgG and LDL coated micro-particle engulfment at 0, 50 nM, 100 nM, 500 nM, 1 mM and higher was tested. The accumulation of free DI-LDL was quantified directly by its red fluorescence. External particles were stained green with secondary anti rabbit FITC and then cells were permeablized and all particles stained red with secondary anti rabbit CY3. Thus engulfed particles appear red while external particles appear yellow. Beads within the cells carrying only the red signal (engulfed) and not also the green signal {red+green=yellow} (outside) were quantified for accumulation assays using both total fluorescence in the green channel and by counting individual beads in three fields on three independent cover slips for each concentration.

RAW 264.7 macrophages [2] = assay: Phagocytic receptor assay: engulfment of IgG or ligand coated particles by RAW macrophages (foam cell model), confocal
Excerpt: FIG. 25, panels A and B, illustrate respectfully a method for measurement of phagocytic receptors and a method for measuring transfection or delivery of nucleic acids and simultaneous measurement of particle engulfment using a single cell multi label confocal microscope experiment. A direct or surrogate measurement of receptor function or receptor pathway activity must be made in order establish the role of potential therapeutic target proteins in receptor function. IgG, complement, low density lipoprotein (LDL), oxidatively modified LDL (OX-LDL). Acetyl-LDL, apolipoproteins, lipoproteins, lipopolysaccharide (LPS), scavenger and other receptor functions can be measured by the accumulation of particles. The particles may themselves be comprised in part of fluorescent materials or can be directly stained with fluorescent or other colored materials or can be bound by proteins that directly or indirectly permit the attachment of fluorescent, chemiluminescent or other reporter molecules. The beads may be stained in live cells or cells fixed with formalin or paraformaldehyde or organic solvents such as alcohol and acids or by other means. The beads can be stained both before or after internalization with or without the permeabilization of the cells by detergents or organic solvents. The beads may be cells that can be lysed and imaged directly. The cells may be counter stained for the presence of specific proteins using antibodies or may express fluorescent protein constructs or contain fluorescent silencing RNA or DNA constructs or biopolymer modulating agents or drugs (FIG. 25).
We created a foam cell model and quantitative confocal assays for micro particle engulfment by macrophages. The engulfment of particles by macrophages and the generation of free radicals by leukocytes are the key physiological actions that lead to the generation of foam cells that are the center of atherosclerotic plaques. We made a cellular model system of foam cells or activated leukocytes and examine the effects of moderate levels of alcohol over time on the accumulation of particles and generation of free radicals at the site of particle accumulation compared to statins and propranolol. The model systems will consist of RAW macrophages that engulf hydrophobic polystyrene microparticles with or without coating by ligands or mixtures of ligands such as those found in cellular growth media, or free fluorescently labeled DI-LDL, OX-LDL, Acetyl LDL or other. Live cell confocal microscopy was used to quantify the effects of ethanol, compared to lovastatin and propranolol, on particle engulfment.
External particles were stained green with secondary anti rabbit FITC and then cells were permeablized and all particles stained red with secondary anti rabbit CY3. Thus engulfed particles appear red while external particles appear yellow. Beads within the cells carrying only the red signal (engulfed) and not also the green signal {red+green=yellow} (outside) were quantified for accumulation assays using both total fluorescence in the green channel and by counting individual beads in three fields on three independent cover slips for each concentration.
RAW 264.7 macrophages were cultured in alpha MEM with 5% fetal calf serum as described. The effects of lovastatin on IgG and LDL coated micro-particle engulfment at 0, 50 nM, 100 nM, 500 nM, 1 mM and higher was tested. The accumulation of free DI-LDL was quantified directly by its red fluorescence. External particles were stained green with secondary anti rabbit FITC and then cells were permeablized and all particles stained red with secondary anti rabbit CY3. Thus engulfed particles appear red while external particles appear yellow.

RAW macrophages = assay: Biochemical measurement of protein levels in fractions of drug treated RAW macrophages
Excerpt: A now well established side effect of ethanol is to prevent heart attack. Thus the common effects of statins, propranolol, and ethanol must be closely linked to the central mechanism that is the most important pharmacological target of heart attack and thus atherosclerosis prevention. It remains possible that the preventative effect of statins results from their effect to inhibit particle engulfment and foam cell formation by macrophages leading to atherosclerotic plaques. We created a foam cell model and quantitative confocal assays for micro particle engulfment by macrophages. The engulfment of particles by macrophages and the generation of free radicals by leukocytes are the key physiological actions that lead to the generation of foam cells that are the center of atherosclerotic plaques. We have made a cellular model system of leukocytes or activated leukocytes or leukocytes treated over time to examine the effects drugs and biopolymer modification materials over time on the activation of receptors at the site of modified or ligand coated particles. The drugs used in this system to examine the kinetics of receptor function at modified particles may result in changes to the cell including changes in gene expression at the level of DNA transcription, RNA production, accumulation or post-transcription processing, mRNA production accumulation or expression all of which may also alter protein expression. We examined the use of these model systems with and without beads as a system to screen the effects of drugs that are known to prevent heart attack and stroke in model of leukocyte cells within atherosclerotic plaques. We observe that drugs that effect receptor associated signaling may also alter gene, RNA or ultimately protein expression in cells resulting in changes in protein levels. Proteins that change levels in response to a drug may be themselves drug target proteins.
The drugs used in the leukocyte model system to examine the kinetics of receptor function at modified particles may result in changes to the cell including changes in gene expression at the level of DNA transcription, RNA production, accumulation or post-transcription processing, mRNA production accumulation or expression all of which may also alter protein expression. We examined the use of these model systems with and without beads as a system to screen the effects of drugs that are known to effect receptor response at or near the cell surface or interior of the cells. We observe that drugs that effect receptor associated signaling may also alter gene, RNA or ultimately protein expression in cells resulting in changes in protein levels. Proteins that change levels in response to a drug may be themselves drug target proteins. […] The RAW leukocyte model foam cells system alone or in combination with the bead based biology system can be used to characterize the effects of receptor or cellular activation in terms of second messengers such as lipid and protein phosphorylation with respect to drug treatment or time in the cytosol of leukocytes (FIG. 67).

SMILES: CC[C@H](C)C(=O)O[C@H]1C[C@@H](C)C=C2C=C[C@H](C)[C@H](CC[C@@H]3C[C@@H](O)CC(=O)O3)[C@H]21 [lovastatin]
- expression of Thrombospondin on the cell surface (Thrombospondin): lowered the expression of Thrombospondin
- accumulation of free cholesterol (free fluorescent DI-LDL or OX-LDL) (RAW 264.7 macrophages [1]): no effect
- engulfment / accumulation of IgG or ligand coated particles (RAW 264.7 macrophages [2]; RAW macrophages, confocal): reduced the capacity of RAW macrophages to engulf particles
- dose that directly prevents engulfment of particles (RAW 264.7 macrophages [2]; cultured macrophage leukocytes): ≤ 100 nM
- levels of cytosolic proteins (FIG. 57) (RAW macrophages; cytosol fraction): alter levels of proteins in the membranes
- levels of proteins in the extracellular matrix (FIG. 55) (RAW macrophages; matrix fraction): alter levels of proteins in the extracellular matrix
- levels of proteins in the membranes (FIG. 54) (RAW macrophages; membrane fraction): alter levels of proteins in the membranes
- levels of proteins in the secretions (FIG. 56) (RAW macrophages; secreted proteins): alter levels of proteins in the secretions
